Reference: patent publication US20170081338A1, “SUBSTITUTED HETEROARYL COMPOUNDS AND METHODS OF USE” (Sunshine Lake Pharma Co., Ltd., priority 2015, published 2017)

What was measured:
[1] = Compound stability in human liver microsomes; format: in vitro ADME; conditions: pH 7.4; for half-life at 5 μM: human liver microsomes 0.5 mg protein/mL, compound 5 μM, NADPH, 37° C., read-out: Human T1/2; for CLint scaled at 5 μM: human liver microsomes, in vivo CLint extrapolated
Method: (§1) Human or rat liver microsomes incubations were conducted in duplicate in polypropylene tubes. The typical incubation mixtures consisted of human or rat liver microsomes (0.5 mg protein/mL), compounds of interest (5 μM) and NADPH (1.0 mM) in a total volume of 200 μL potassium phosphate buffer (PBS, 100 mM, pH 7.4). Compounds were dissolved in DMSO and diluted with PBS such that the final concentration of DMSO was 0.05%. The enzymatic reactions were commenced with the addition of protein after a 3-min preincubation and incubated in a water bath open to the air at 37° C. Reactions were terminated at various time points (0, 5, 10, 15, 30, 60 min) by adding equal volume of ice-cold acetonitrile. The samples were stored at −80° C. until LC/MS/MS assays.
(§2) The concentrations of compounds in the incubation mixtures of human or rat liver microsomes were determined by a LC/MS/MS method. The ranges of the linearity in the concentration range were determined for each tested compounds.
(§3) A parallel incubation was performed using denatured microsomes as the negative control, and reactions were terminated at various time points (0, 15, 60 min) after incubation at 37° C.
(§4) Dextromethorphan (70 μM) was selected as the positive control, and reactions were terminated at various time points (0, 5, 10, 15, 30, 60 min) after incubation at 37° C. Both positive and negative control samples were included in each assay to ensure the integrity of the microsomal incubation system.
(§5) The concentrations of compounds in human or rat liver microsome incubations were plotted as a percentage of the relevant zero time point control for each reaction. The in vivo CLint were extrapolated (ref.: Naritomi, Y.; Terashita, S.; Kimura, S.; Suzuki, A.; Kagayama, A.; and Sugiyama, Y.; Prediction of human hepatic clearance from in vivo animal experiments and in vitro metabolic studies with liver microsomes from animals and humans. Drug Metab. Dispos., 2001, 29: 1316-1324).

[2] = Compound stability in rat liver microsomes; format: in vitro ADME; conditions: pH 7.4; for half-life at 5 μM: rat liver microsomes 0.5 mg protein/mL, compound 5 μM, NADPH, 37° C., read-out: Rat T1/2; for CLint scaled at 5 μM: rat liver microsomes, in vivo CLint extrapolated
Method: as §1, §2, §3, §4, §5

[3] = Pharmacokinetics after intravenous and oral administration in rats; format: in vivo; conditions: for Clearance (CL) after iv dosing / AUC(0-t) / half-life / Vd: dose 1 mg/kg, iv dosing; for F: oral bioavailability; for AUC(0-t) / half-life / Vd: rat, plasma; for Vd: read-out: Vss
Method: The LC/MS/MS system used in the analysis consists of an Agilent 1200 Series vacuum degasser, binary pump, well-plate autosampler, thermostatted column compartment, the Agilent G6430 Triple Quadrupole Mass Spectrometer with an electrosprayionization (ESI) source. Quantitative analysis was carried out using MRM mode. The parameters for MRM transitions are in the Table A.
An Agilent XDB-C18, 2.1×30 mm, 3.5 μM column was used for the analysis. 5 μL of the samples were injected. Analysis condition: The mobile phase was 0.1% formic acid in water (A) and 0.1% formic acid in methanol (B). The flow rate was 0.4 mL/min. And the gradient of Mobile phase was in the Table B.
Alternatively, an Agilent 6330 series LC/MS/MS spectrometer equipped with G1312A binary pumps, a G1367A autosampler and a G1314C UV detector were used in the analysis. An ESI source was used on the LC/MS/MS spectrometer. The analysis was done in positive ion mode as appropriate and the MRM transition for each analyte was optimized using standard solution. A Capcell MP-C18 100×4.6 mm I.D., […] column (Phenomenex, Torrance, Calif., USA) was used during the analysis. The mobile phase was 5 mM ammonia acetate, 0.1% MeOH in water (A): 5 mM ammonia acetate, 0.1% MeOH in acetonitrile (B) (70/30, v/v). The flow rate was 0.6 mL/min. Column was maintained at ambient temperature. 20 μL of the samples were injected.
The compounds disclosed herein are assessed in pharmacokinetic studies in mice, rats, dogs or monkeys. The compounds are administered as a water solution, 2% HPMC+1% TWEEN®80 in water solution, 5% DMSO+5% solutol in saline, 4% MC suspension or capsule. For the intravenous administration, the animals are generally given at 0.5, 1 or 2 mg/kg dose. For the oral (p.o.) dosing, mice and rats are generally given 0.5, 1, 5 or 10 mg/kg dose, and dogs and monkeys are generally given 10 mg/kg dose. The blood samples (0.3 mL) are drawn at 0.25, 0.5, 1.0, 2.0, 3.0, 4.0, 6.0, 8.0, 12 and 24 h time points or 0.083, 0.25, 0.5, 1.0, 2.0, 4.0, 6.0, 8.0 and 24 h time points and centrifuged at 3,000 or 4000 rpm for 2 to 10 min. The plasma solutions are collected, and stored at −20° C. or −70° C. until analyzed by LC/MS/MS as described above.

| Compound | half-life at 5 μM [1] | CLint scaled at 5 μM [1] | half-life at 5 μM [2] | CLint scaled at 5 μM [2] | Clearance (CL) after iv dosing [3] | F [3] | AUC(0-t) [3] | half-life [3] | Vd [3] |
| --- | --- | --- | --- | --- | --- | --- | --- | --- | --- |
| Cn1cc(Nc2ncc(Cl)c(N[C@@H]3COC4C3OC[C@@H]4N3CCCS3(=O)=O)n2)cn1 (stereo partly drawn) [Ex. 12, 2-((3S,6R)-6-((5-chloro-2-((1-methyl-1H-pyrazol-4-yl)amino)pyrimidin-4-yl)amino)hexahydrofuro[3,2-b]furan-3-yl)isothiazolidine 1,1-dioxide] | 272 min | 6.39 mL/min/kg | 105 min | 23.7 mL/min/kg | 59.8 mL/min/kg | 75.2% | 363 ng·h/mL | 40.2 min | 1.98 L/kg |
| Cn1cc(Nc2ncc(Cl)c(N[C@@H]3COC4C3OC[C@@H]4N3CCCC3=O)n2)cn1 (stereo partly drawn) [Ex. 22, 1-((3S,6R)-6-((5-chloro-2-((1-methyl-1H-pyrazol-4-yl)amino)pyrimidin-4-yl)amino)hexahydrofuro[3,2-b]furan-3-yl)pyrrolidin-2-one] | 289 min | 6.01 mL/min/kg | 104 min | 23.8 mL/min/kg | 10.2 mL/min/kg | 96.9% | 1630 ng·h/mL | 65.4 min | 1.06 L/kg |
| CC(C)=CS(=O)(=O)N[C@H]1COC2C1OC[C@H]2Nc1nc(Nc2cnn(C)c2)ncc1Cl (stereo partly drawn) [Ex. 43, N-((3S,6R)-6-((5-chloro-2-((1-methyl-1H-pyrazol-4-yl)amino)pyrimidin-4-yl)amino)hexahydrofuro[3,2-b]furan-3-yl)-2-methylprop-1-ene-1-sulfonamide] | 22.9 min | 76 mL/min/kg | 25.7 min | 96.5 mL/min/kg | 35 mL/min/kg | 57.1% | 479 ng·h/mL | 47.4 min | 1.75 L/kg |
| CC(O)CS(=O)(=O)N[C@H]1COC2C1OC[C@H]2Nc1nc(Nc2cnn(C)c2)ncc1Cl (stereo partly drawn) [Ex. 44, N-((3S,6R)-6-((5-chloro-2-((1-methyl-1H-pyrazol-4-yl)amino)pyrimidin-4-yl)amino)hexahydrofuro[3,2-b]furan-3-yl)-2-hydroxypropane-1-sulfonamide] | 837 min | 2.1 mL/min/kg | 310 min | 8 mL/min/kg |  |  |  |  |  |
| CC(CS(=O)(=O)N[C@H]1COC2C1OC[C@H]2Nc1nc(Nc2cnn(C)c2)ncc1Cl)C(F)F (stereo partly drawn) [Ex. 42, N-((3S,6R)-6-((5-chloro-2-((1-methyl-1H-pyrazol-4-yl)amino)pyrimidin-4-yl)amino)hexahydrofuro[3,2-b]furan-3-yl)-3,3-difluoro-2-methylpropane-1-sulfonamide] | 29.3 min | 59.3 mL/min/kg | 29.6 min | 83.9 mL/min/kg | 32.5 mL/min/kg | 33.1% | 517 ng·h/mL | 46.2 min | 1.37 L/kg |
| O=S(=O)(CC1CC1)N[C@H]1COC2C1OC[C@H]2Nc1nc(Nc2cnn(C3CCNCC3)c2)ncc1Cl (stereo partly drawn) [Ex. 35, N-((3S,6R)-6-((5-chloro-2-((1-(piperidin-4-yl)-1H-pyrazol-4-yl)amino)pyrimidin-4-yl)amino)hexahydrofuro[3,2-b]furan-3-yl)-1-cyclopropylmethanesulfonamide] | 51.1 min | 34 mL/min/kg | 441 min | 5.6 mL/min/kg |  |  |  |  |  |
| Cn1cc(Nc2ncc(Cl)c(N[C@@H]3COC4C3OC[C@@H]4NS(=O)(=O)CC3CC(F)C3)n2)cn1 (stereo partly drawn) [Ex. 39, N-((3S,6R)-6-((5-chloro-2-((1-methyl-1H-pyrazol-4-yl)amino)pyrimidin-4-yl)amino)hexahydrofuro[3,2-b]furan-3-yl)-1-(3-fluorocyclobutyl)methanesulfonamide] |  |  |  |  | 35.8 mL/min/kg | 48.7% | 464 ng·h/mL | 33 min | 1.07 L/kg |
| Cn1cc(Nc2ncc(Cl)c(N[C@@H]3COC4C3OC[C@@H]4N3CCOC3=O)n2)cn1 (stereo partly drawn) [Ex. 9, 3-((3S,6R)-6-((5-chloro-2-((1-methyl-1H-pyrazol-4-yl)amino)pyrimidin-4-yl)amino)hexahydrofuro[3,2-b]furan-3-yl)oxazolidin-2-one] |  |  |  |  |  | 64.6% | 792 ng·h/mL | 636 min | 27.1 L/kg |

Further lines, results first:

| half-life at 5 μM [1] | CLint scaled at 5 μM [1] | half-life at 5 μM [2] | CLint scaled at 5 μM [2] | Clearance (CL) after iv dosing [3] | F [3] | AUC(0-t) [3] | half-life [3] | Vd [3] | Compound |
| --- | --- | --- | --- | --- | --- | --- | --- | --- | --- |
|  |  | 116 min | 21.4 mL/min/kg | 42 mL/min/kg | 52.4% | 398 ng·h/mL | 13.8 min | 0.55 L/kg | CNC(=O)N[C@H]1COC2C1OC[C@H]2Nc1nc(Nc2cnn(C)c2)ncc1Cl (stereo partly drawn) [Ex. 1, 1-((3S,6R)-6-((5-chloro-2-((1-methyl-1H-pyrazol-4-yl)amino)pyrimidin-4-yl)amino)hexahydrofuro[3,2-b]furan-3-yl)-3-methylurea] |
| 65.6 min | 26.5 mL/min/kg | 47.7 min | 52.1 mL/min/kg | 17 mL/min/kg | 106.6% | 982 ng·h/mL | 32.4 min | 0.69 L/kg | Cn1cc(Nc2ncc(Cl)c(N[C@@H]3COC4C3OC[C@@H]4NS(=O)(=O)CC(C)(F)F)n2)cn1 (stereo partly drawn) [Ex. 38, N-((3S,6R)-6-((5-chloro-2-((1-methyl-1H-pyrazol-4-yl)amino)pyrimidin-4-yl)amino)hexahydrofuro[3,2-b]furan-3-yl)-2,2-difluoropropane-1-sulfonamide] |
| 25.2 min | 69 mL/min/kg | 19.7 min | 126 mL/min/kg | 30.3 mL/min/kg | 77.3% | 533 ng·h/mL | 31.2 min | 1.22 L/kg | CC(CS(=O)(=O)N[C@H]1COC2C1OC[C@H]2Nc1nc(Nc2cnn(C)c2)ncc1Cl)C(F)(F)F (stereo partly drawn) [Ex. 40, N-((3S,6R)-6-((5-chloro-2-((1-methyl-1H-pyrazol-4-yl)amino)pyrimidin-4-yl)amino)hexahydrofuro[3,2-b]furan-3-yl)-3,33-trifluoro-2-methylpropane-1-sulfonamide] |
| 44.1 min | 39.4 mL/min/kg | 121 min | 20.6 mL/min/kg |  | 40.0% | 542 ng·h/mL | 335 min | 23.5 L/kg | Cn1cc(Nc2ncc(Cl)c(N[C@@H]3COC4C3OC[C@@H]4NS(=O)(=O)N3CCOCC3)n2)cn1 (stereo partly drawn) [Ex. 11, N-((3S,6R)-6-((5-chloro-2-((1-methyl-1H-pyrazol-4-yl)amino)pyrimidin-4-yl)amino)hexahydrofuro[3,2-b]furan-3-yl)morpholine-4-sulfonamide] |
